Test results reported in patent US6071917A, “N-benzenesulphonyl-L-proline derivatives as bradykinin B2 antagonists” (Fournier Industrie Et Sante, priority 1996, dated 2000).
Structures can show the parent of a compound that is named as a salt.

Target: T1, guinea-pig B2 receptor (Cavia porcellus, UniProt O70526)
T1 construct: Ileum segments are isolated from male guinea-pigs; tissue Iffa Credo, l'Arbresle, France (supplier of the animals); host or cells: ileum membranes of male Dunkin-Hartley guinea-pigs
T1 sequence (O70526 1-372): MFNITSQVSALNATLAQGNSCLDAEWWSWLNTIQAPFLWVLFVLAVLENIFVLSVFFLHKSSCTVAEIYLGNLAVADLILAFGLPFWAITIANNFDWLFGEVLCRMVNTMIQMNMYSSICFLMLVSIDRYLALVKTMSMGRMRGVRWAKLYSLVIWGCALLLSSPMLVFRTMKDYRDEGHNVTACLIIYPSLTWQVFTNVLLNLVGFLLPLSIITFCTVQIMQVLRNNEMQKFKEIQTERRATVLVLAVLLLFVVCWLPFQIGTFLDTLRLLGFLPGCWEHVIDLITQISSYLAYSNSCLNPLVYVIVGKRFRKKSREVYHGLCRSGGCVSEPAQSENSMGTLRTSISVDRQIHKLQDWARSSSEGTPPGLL
Assay: [3H]-bradykinin binding to guinea-pig ileum membranes
Details: test compound at 10^-6 M; [3H]-bradykinin 120 pM; 50 μg ileum membrane protein; 90 min at 20° C.; read-out: Activity (%): percentage inhibition of the binding of [3H]-bradykinin
Protocol: The following pharmacological test is used: Ileum segments are isolated from male guinea-pigs [of the Dunkin-Hartley strain (Iffa Credo, l'Arbresle, France)] and ground in the following TES buffer: TES 25 mM, 1,10-phenanthroline 1 mM (pH 6.8), bacitracin 140 μg/ml, BSA 1 g/l. The membranes are then isolated by centrifugation (18,000 rpm; 20 min; 4° C.). The binding studies are carried out in this TES buffer using [^3 H]-bradykinin (120 pM) and 50 μg of membrane protein per test (final volume 500 μl) with an equilibrium time of 90 min at 20° C. The percentage inhibition of the binding of [^3 H]-bradykinin is then determined in the presence of one of the test compounds according to the invention at a concentration of 10^-6 M.
The results obtained from these tests (shown as "activity") are collated in Table I below with reference to the Examples given in the description.

Cc1cc(C)c2cccc(OCc3c(Cl)ccc(S(=O)(=O)N4CCC[C@H]4C(=O)NCc4cccc(C(=N)N)c4)c3Cl)c2n1 [Example 2, 1-[[3-[(2,4-Dimethylquinolin-8-yl)oxymethyl]-2,4-dichlorophenyl]sulfonyl]-N-[3-(aminoiminomethyl)phenylmethyl]-2(S)-pyrrolidinecarboxamide dihydrochloride] and Cc1cc(C)c2cccc(OCc3c(Cl)ccc(S(=O)(=O)N4CCC[C@H]4C(=O)NCc4ccc(C(=N)N)cc4)c3Cl)c2n1 [Example 6, 1-[[3-[(2,4-Dimethylquinolin-8-yl)oxymethyl]-2,4-dichlorophenyl]sulfonyl]-N-[4-(aminoiminomethyl)phenylmethyl]-2(S)-pyrrolidinecarboxamide bis(methanesulfonate)] are the same in inhibition at 1 µM: 100% for the first, 100% for the second.

Compared with Cc1cc(C)c2cccc(OCc3c(Cl)ccc(S(=O)(=O)N4CCC[C@H]4C(=O)N(C)Cc4ccc(C(=N)N)cc4)c3Cl)c2n1 [Example 4, 1-[[3-[(2,4-Dimethylquinolin-8-yl)oxymethyl]-2,4-dichlorophenyl]sulfonyl]-N-methyl-N-[4-(aminoiminomethyl)phenylmethyl]-2(S)-pyrrolidinecarboxamide dihydrochloride], Cc1cc(C)c2cccc(OCc3c(Cl)ccc(S(=O)(=O)N4CCC[C@H]4C(=O)N4CCN(C(=O)Cc5ccc(C(=N)N)cc5)CC4)c3Cl)c2n1 [Example 14, 1-[[3-[(2,4-Dimethylquinolin-8-yl)oxymethyl]-2,4-dichlorophenyl]sulfonyl]-(S)-[[4-[2-[4-(aminoiminomethyl)phenyl]-1-oxoethyl]piperazin-1-yl]carbonyl]pyrrolidine dihydrochloride] is higher in inhibition at 1 µM: 97.8% for the first, 100% for the second.

First: Cc1ccc2cccc(OCc3c(Cl)ccc(S(=O)(=O)N4CCC[C@H]4C(=O)NCc4ccc(C(=N)N)cc4)c3Cl)c2n1 [Example 8, 1-[[3-[(2-Methylquinolin-8-yl)oxymethyl]-2,4-dichlorophenyl]sulfonyl]-N-[4-(aminoiminomethyl)phenylmethyl]-2(S)-pyrrolidinecarboxamide dihydrochloride]
Second: Cc1ccc2cccc(OCc3c(Cl)ccc(S(=O)(=O)N4CCC[C@H]4C(=O)Nc4cccc(C(=N)N)c4)c3Cl)c2n1 [Example 10, 1-[[3-[(2-Methylquinolin-8-yl)oxymethyl]-2,4-dichlorophenyl]sulfonyl]-N-[3-(aminoiminomethyl)phenyl]-2(S)-pyrrolidinecarboxamide dihydrochloride]
The inhibition at 1 µM of the first is lower: 96.6% for the first, 100% for the second.

First: Cc1cc(C)c2cccc(OCc3c(Cl)ccc(S(=O)(=O)N4CCC[C@H]4C(=O)N4CCN(C(=O)c5ccc(C(=N)N)cc5)CC4)c3Cl)c2n1 [Example 12, 1-[[3-[(2,4-Dimethylquinolin-8-yl)oxymethyl]-2,4-dichlorophenyl]sulfonyl]-2(S)-[[4-[4-(aminoiminomethyl)benzoyl]piperazin-1-yl]carbonyl]pyrrolidine dihydrochloride]
Second: Cc1cc(C)c2cccc(OCc3c(Cl)ccc(S(=O)(=O)N4CCC[C@H]4C(=O)N4CCN(C(=O)COc5ccc(C(=N)N)cc5)CC4)c3Cl)c2n1 [Example 16, 1-[[3-[(2,4-Dimethylquinolin-8-yl)oxymethyl]-2,4-dichlorophenyl]sulfonyl]-2(S)-[[4-[2-[4-(aminoiminomethyl)phenoxyl]-1-oxoethyl]piperazin-1-yl]carbonyl]pyrrolidine dihydrochloride]
The inhibition at 1 µM of the first is lower: 99.3% for the first, 100% for the second.

Cc1ccc2cccc(OCc3c(Cl)ccc(S(=O)(=O)N4CCC[C@H]4C(=O)N4CCN(C(=O)c5ccc(C(=N)N)cc5)CC4)c3Cl)c2n1 [Example 18, 1-[[3-[(2-Methylquinolin-8-yl)oxymethyl]-2,4-dichlorophenyl]sulfonyl]-2(S)-[[4-[4-(aminoiminomethyl)benzoyl]piperazin-1-yl]carbonyl]pyrrolidine dihydrochloride] and Cc1ccc2cccc(OCc3c(Cl)ccc(S(=O)(=O)N4CCC[C@H]4C(=O)N4CCN(C(=O)Cc5ccc(C(=N)N)cc5)CC4)c3Cl)c2n1 [Example 20, 1-[[3-[(2-Methylquinolin-8-yl)oxymethyl]-2,4-dichlorophenyl]sulfonyl]-2(S)-[[4-[2-[4-(aminoiminomethyl)phenyl-1-oxoethyl]piperazin-1-yl]carbonyl]pyrrolidinedihydrochloride] are the same in inhibition at 1 µM: 100% for the first, 100% for the second.

Compared with Cc1ccc2cccc(OCc3c(Cl)ccc(S(=O)(=O)N4CCC[C@H]4C(=O)N4CCN(C(=O)COc5ccc(C(=N)N)cc5)CC4)c3Cl)c2n1 [Example 22, 1-[[3-[(2-Dimethylquinolin-8-yl)oxymethyl]-2,4-dichlorophenyl]sulfonyl]-2(S)-[4-[2-[4-(aminoiminomethyl)phenoxyl-1-oxoethyl]piperazin-1-yl]carbonyl]pyrrolidine dihydrochloride], Cc1ccc2cccc(OCc3c(Cl)ccc(S(=O)(=O)N4CCC[C@H]4C(=O)NC4CCN(C(=O)c5ccc(C(=N)N)cc5)CC4)c3Cl)c2n1 [Example 24] is lower in inhibition at 1 µM: 100% for the first, 98.9% for the second.

First: Cc1cc(C)c2cccc(OCc3c(Cl)ccc(S(=O)(=O)N4CCC[C@H]4C(=O)NC4CCN(C(=O)c5ccc(C(=N)N)cc5)CC4)c3Cl)c2n1 [Example 26, 1-[[3-[(2,4-Dimethylquinolin-8-yl)oxymethyl]-2,4-dichlorophenyl]sulfonyl]-N-[1-[4-(aminoiminomethyl)benzoyl]piperidin-4-yl]-2(S)-pyrrolidinecarboxamide bis(methanesulfonate)]
Second: Cc1cc(C)c2cccc(OCc3c(Cl)ccc(S(=O)(=O)N4CCC[C@H]4C(=O)NC4CCN(C(=O)COc5ccc(C(=N)N)cc5)CC4)c3Cl)c2n1 [Example 28]
The inhibition at 1 µM of the first is higher: 100% for the first, 98% for the second.

Cc1cc(C)c2cccc(OCc3c(Cl)ccc(S(=O)(=O)N4CCC[C@H]4C(=O)NCC4CCN(C(=O)COc5ccc(C(=N)N)cc5)CC4)c3Cl)c2n1 [Example 30, 1-[[3-[(2,4-Dimethylquinolin-8-yl)oxymethyl]-2,4-dichlorophenyl]sulfonyl]-N-[[1-[2-[4-(aminoiminomethyl)phenoxy]-1-oxoethyl]piperidin-4-yl]methyl]-2(S)-pyrrolidinecarboxamide bis(methanesulfonate)] showed an inhibition at 1 µM of 99.3%.
